pIC50: −log10 of the molar value. Active and inactive are the calls of the source. No rule for the calls is given here.
Columns and labels:
[1] = system: TNFa-stimulated cells, VCAM1 expression imaging; assay: blockers of VCAM1 upregulation by TNFa – imaging, TNFa stimulus, retest and dose response, confirmation (AID 1013);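 as to cell count: compound on cells 1 h before TNFa then 24 h more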
[2] = as above; settings: TNFa-stimulated cells, VCAM1 expression imaging; cell count; at 10 µM; stronger effect = lower value

SMILES	IC50 [1]	cell count [2] [%]	pIC50 [1]
Cc1ccccc1NC1=C/C(=N\S(=O)(=O)c2cccs2)c2ccccc2C1=O	> 10000 nM (inactive)	99.8	
COc1cc(C(=O)N2CCN(c3cc(Cl)ccc3Cl)CC2)cc(OC)c1OC	> 10000 nM (inactive)	82.9	
COc1ccc(C(=O)C(CN2CCCC2)c2ccccc2)cc1 (stereo unspecified)		73.4	5.68
CC(=O)c1c(C)oc2ccc(N(C(C)=O)S(=O)(=O)c3ccc(Cl)c([N+](=O)[O-])c3)cc12	> 10000 nM (inactive)	104	
COc1ccc(C(=O)c2c(C(F)(F)F)oc3c2C(=O)c2ccccc2C3=O)cc1	> 10000 nM (inactive)	105	
NC(=S)N/N=C\c1ccc(-c2cccc(Cl)c2Cl)o1	> 10000 nM (inactive)	106	
Cc1ccc2[nH]c3c(c2c1)CCC3=O		72	6.00
OCCN=C1CCCc2c1[nH]c1ccc(Br)cc21		76.3	6.83

From PubChem BioAssay AID1013 (Columbia University Molecular Screening Center, 2008)
